Values of other authors, collected in patent US20260053727A1, “PERSONAL CARE COMPOSITIONS WITH ENZYME-MODIFIED OILS (EMOS)” (GLYCOSBIO INC., priority 2023, published 2026).

Conditions: commonly known

Q: Which antimicrobial activity does the source give for `O=C([O-])c1ccccc1.[Na+]` [sodium benzoate] here?
A: weakly antimicrobial
